Data on one compound can be found in US10081616B2, “Soluble epoxide hydrolase inhibitors and uses thereof” (X-Chem, Inc., priority 2014, dated 2018).

This experiment deals with T1, sEH (Homo sapiens, UniProt P34913).
T1 construct: purchased Cayman Chemical 10011669
T1 sequence (P34913 1-555): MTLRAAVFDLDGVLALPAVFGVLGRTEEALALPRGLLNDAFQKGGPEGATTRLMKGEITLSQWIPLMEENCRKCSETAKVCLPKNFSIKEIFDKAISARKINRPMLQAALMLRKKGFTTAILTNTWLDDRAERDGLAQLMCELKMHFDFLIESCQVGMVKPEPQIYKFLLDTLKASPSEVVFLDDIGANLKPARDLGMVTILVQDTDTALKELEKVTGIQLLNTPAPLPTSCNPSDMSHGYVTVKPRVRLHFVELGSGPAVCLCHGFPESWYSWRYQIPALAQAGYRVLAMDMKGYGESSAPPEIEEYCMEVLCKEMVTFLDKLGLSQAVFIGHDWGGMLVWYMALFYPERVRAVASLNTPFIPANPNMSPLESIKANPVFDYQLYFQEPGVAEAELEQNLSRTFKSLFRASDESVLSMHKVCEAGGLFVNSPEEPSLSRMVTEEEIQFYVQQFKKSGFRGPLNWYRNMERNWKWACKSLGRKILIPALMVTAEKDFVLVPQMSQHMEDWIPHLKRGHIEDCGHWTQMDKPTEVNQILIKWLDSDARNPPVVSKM
As to the kind of experiment: sEH inhibition assay (Epoxy Fluor 7 substrate, fluorescence). Format: biochemical. As to conditions: enzyme 3 nM, 15 min pre-incubation at room temperature, read at 30° C. for 20 minutes, read-out: IC50 against sEH. How it is done: The sEH inhibition assay was conducted in costar 384 well black NBS plates (Corning). The assay buffer used was 25 mM Tris pH 7.0 and 0.1 mg/ml BSA. The enzyme was purchased from Cayman Chemical (10011669) at a stock concentration of 15.625 μM. The Epoxy Fluor 7 substrate also from Cayman Chemical (10008610) was dissolved in DMSO at a concentration of 25.68 mM. This was further diluted ten-fold in DMSO to a concentration of 2.568 mM. Competition assays were performed with 5 μL Epoxy Fluor 7 diluted from DMSO stock to a final concentration of 5 nM, 5 μL of competitor (final concentration 10 μM-0.5 nM), and 10 μL enzyme (final concentration of 3 nM) in the assay buffer for a total volume of 20 μL. The compound was pre-incubated with enzyme for 15 min at room temperature prior to addition of substrate. The plate was read kinetically at excitation 330 nm and emission 465 nm wavelengths at 30° C. for 20 minutes on the Tecan M1000. The rate was calculated for the linear portion of the curves (2.5-12.5 minutes) and data fit to a sigmoidal curve.

Molecules are shown by their SMILES.

For `CN(CCn1cccn1)C(=O)c1ccc(-c2cccc(C(=O)NC3CCCCC3)c2)nc1` [Compound 1, N-(2-(1H-pyrazol-1-yl)ethyl)-6-(3-(cyclohexylcarbamoyl)phenyl)-N-methylnicotinamide], the IC50 (in general, the concentration that gives 50% inhibition) was found to be 2 nM.
